Experiment [1] has as its target Myosin light chain kinase, smooth muscle (Homo sapiens) (UniProt Q15746). Put plainly: Inhibition of human MYLK at 500 nM by HotSpot assay relative to control.
The target in experiment [2] is Mitogen-activated protein kinase 11 (Homo sapiens) (UniProt Q15759). As to the kind of experiment: Inhibition of human MAPK11 at 500 nM by HotSpot assay relative to control.
Experiment [3] has as its target T1, Dual specificity tyrosine-phosphorylation-regulated kinase 3 (Homo sapiens) (UniProt O43781).
T1 sequence (whole entry): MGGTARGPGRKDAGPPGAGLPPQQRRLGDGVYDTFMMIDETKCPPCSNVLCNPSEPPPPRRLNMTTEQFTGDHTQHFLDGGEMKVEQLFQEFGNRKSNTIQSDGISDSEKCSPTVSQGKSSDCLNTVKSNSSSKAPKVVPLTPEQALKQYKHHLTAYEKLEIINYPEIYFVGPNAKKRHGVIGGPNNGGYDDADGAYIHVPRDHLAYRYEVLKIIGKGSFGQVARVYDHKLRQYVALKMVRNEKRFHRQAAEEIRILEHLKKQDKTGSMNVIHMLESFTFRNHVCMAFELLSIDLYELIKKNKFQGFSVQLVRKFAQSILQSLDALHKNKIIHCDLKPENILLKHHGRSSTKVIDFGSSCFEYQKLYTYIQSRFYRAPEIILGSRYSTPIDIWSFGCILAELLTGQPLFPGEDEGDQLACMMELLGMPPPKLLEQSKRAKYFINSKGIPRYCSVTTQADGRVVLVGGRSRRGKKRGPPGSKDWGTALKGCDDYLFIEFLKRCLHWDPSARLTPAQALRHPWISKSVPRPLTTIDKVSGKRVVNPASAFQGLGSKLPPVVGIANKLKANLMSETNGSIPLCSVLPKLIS
As to the kind of experiment: Inhibition of human DYRK3 at 500 nM by HotSpot assay relative to control.

Experiment [4] deals with T2, Tyrosine-protein kinase Tec (Homo sapiens) (UniProt P42680).
T2 sequence (whole entry): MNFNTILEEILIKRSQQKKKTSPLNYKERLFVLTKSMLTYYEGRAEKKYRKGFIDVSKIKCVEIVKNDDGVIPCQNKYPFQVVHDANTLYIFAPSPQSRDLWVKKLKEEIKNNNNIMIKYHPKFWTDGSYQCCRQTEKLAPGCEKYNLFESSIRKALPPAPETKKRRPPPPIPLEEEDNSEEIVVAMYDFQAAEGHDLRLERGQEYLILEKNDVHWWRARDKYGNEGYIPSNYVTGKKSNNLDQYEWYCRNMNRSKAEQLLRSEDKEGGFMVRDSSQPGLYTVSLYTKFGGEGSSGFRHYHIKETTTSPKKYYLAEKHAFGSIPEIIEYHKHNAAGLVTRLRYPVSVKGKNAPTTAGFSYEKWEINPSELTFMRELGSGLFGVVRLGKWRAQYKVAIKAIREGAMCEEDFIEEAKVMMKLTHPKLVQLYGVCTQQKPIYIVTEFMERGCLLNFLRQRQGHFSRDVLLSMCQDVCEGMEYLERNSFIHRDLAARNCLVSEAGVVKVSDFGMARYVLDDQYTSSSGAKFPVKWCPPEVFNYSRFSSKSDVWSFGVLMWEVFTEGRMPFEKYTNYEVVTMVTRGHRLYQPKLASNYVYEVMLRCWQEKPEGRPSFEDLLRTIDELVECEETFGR
Put plainly: Inhibition of human TEC at 500 nM by HotSpot assay relative to control.

Experiment [5] concerns the target MAP kinase-interacting serine/threonine-protein kinase 2 (Homo sapiens) (UniProt Q9HBH9). As to the kind of experiment: Inhibition of human MNK2 at 500 nM by HotSpot assay relative to control.
The target in experiment [6] is Protein-tyrosine kinase 6 (Homo sapiens) (UniProt Q13882). As to the kind of experiment: Inhibition of human BRK at 500 nM by HotSpot assay relative to control.
For experiment [7], the target named is Serine/threonine-protein kinase B-raf (Homo sapiens) (UniProt P15056). As to the kind of experiment: Inhibition of human BRAF at 500 nM by HotSpot assay relative to control.
Experiment [8] concerns the target Casein kinase I isoform delta (Homo sapiens) (UniProt P48730). Put plainly: Inhibition of human CK1d at 500 nM by HotSpot assay relative to control.
Experiment [9] addresses T3, 3-phosphoinositide-dependent protein kinase 1 (Homo sapiens) (UniProt O15530).
T3 sequence (whole entry): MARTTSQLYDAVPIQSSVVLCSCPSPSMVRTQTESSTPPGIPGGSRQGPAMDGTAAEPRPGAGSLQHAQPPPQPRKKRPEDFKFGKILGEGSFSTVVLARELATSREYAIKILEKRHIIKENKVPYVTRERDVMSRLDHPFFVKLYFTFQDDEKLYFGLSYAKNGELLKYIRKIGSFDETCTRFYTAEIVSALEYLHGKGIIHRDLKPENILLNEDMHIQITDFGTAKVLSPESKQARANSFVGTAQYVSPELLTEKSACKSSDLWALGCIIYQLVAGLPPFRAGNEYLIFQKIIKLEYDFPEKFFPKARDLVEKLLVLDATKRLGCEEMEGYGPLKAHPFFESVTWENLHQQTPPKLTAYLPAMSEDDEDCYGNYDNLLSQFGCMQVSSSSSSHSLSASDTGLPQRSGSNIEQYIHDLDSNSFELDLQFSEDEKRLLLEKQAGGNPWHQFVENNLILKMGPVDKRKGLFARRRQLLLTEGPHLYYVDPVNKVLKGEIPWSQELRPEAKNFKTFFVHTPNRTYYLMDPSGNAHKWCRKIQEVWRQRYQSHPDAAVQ
As to the kind of experiment: Inhibition of human PDPK1 at 500 nM by HotSpot assay relative to control.

Experiment [10] concerns the target Serine/threonine-protein kinase N2 (Homo sapiens) (UniProt Q16513). Put plainly: Inhibition of human PRK2 at 500 nM by HotSpot assay relative to control.
Experiment [11] addresses Protein kinase C beta type (Homo sapiens) (UniProt P05771). Put plainly: Inhibition of human PKCb2 at 500 nM by HotSpot assay relative to control.
Experiment [12] concerns the target Fibroblast growth factor receptor 3 (Homo sapiens) (UniProt P22607). Put plainly: Inhibition of human FGFR3 at 500 nM by HotSpot assay relative to control.
Experiment [13] addresses Dual specificity tyrosine-phosphorylation-regulated kinase 1A (Homo sapiens) (UniProt Q13627). As to the kind of experiment: Inhibition of human DYRK1 at 500 nM by HotSpot assay relative to control.
The target of experiment [14] is Serine/threonine-protein kinase Nek6 (Homo sapiens) (UniProt Q9HC98). As to the kind of experiment: Inhibition of human NEK6 at 500 nM by HotSpot assay relative to control.

2 compounds from ChEMBL document CHEMBL5653615 (J Biol Chem, 2013) can be followed below.

Each structure is given as a SMILES string.

Sequence of Serine/threonine-protein kinase B-raf (Homo sapiens) (P15056 whole entry, canonical isoform): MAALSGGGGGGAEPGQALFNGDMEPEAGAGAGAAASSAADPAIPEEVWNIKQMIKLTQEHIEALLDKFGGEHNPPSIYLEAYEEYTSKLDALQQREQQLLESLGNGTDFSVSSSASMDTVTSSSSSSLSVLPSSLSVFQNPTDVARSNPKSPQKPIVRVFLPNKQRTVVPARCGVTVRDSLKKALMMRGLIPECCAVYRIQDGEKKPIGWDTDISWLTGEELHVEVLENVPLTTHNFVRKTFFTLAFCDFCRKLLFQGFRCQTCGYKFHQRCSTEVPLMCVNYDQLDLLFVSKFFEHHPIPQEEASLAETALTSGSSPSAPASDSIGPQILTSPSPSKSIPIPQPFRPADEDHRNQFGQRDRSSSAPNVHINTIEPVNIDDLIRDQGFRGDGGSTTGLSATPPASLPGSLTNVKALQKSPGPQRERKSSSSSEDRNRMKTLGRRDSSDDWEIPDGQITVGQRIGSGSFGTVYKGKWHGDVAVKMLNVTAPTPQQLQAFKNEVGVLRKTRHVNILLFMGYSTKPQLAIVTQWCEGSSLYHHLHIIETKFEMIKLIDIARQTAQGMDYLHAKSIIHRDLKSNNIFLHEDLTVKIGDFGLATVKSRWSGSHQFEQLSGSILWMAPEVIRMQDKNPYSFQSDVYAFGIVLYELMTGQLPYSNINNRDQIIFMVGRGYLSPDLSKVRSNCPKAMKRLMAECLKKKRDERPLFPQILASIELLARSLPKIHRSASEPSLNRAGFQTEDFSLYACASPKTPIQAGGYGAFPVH
Sequence of Protein-tyrosine kinase 6 (Homo sapiens) (Q13882 whole entry, looked up): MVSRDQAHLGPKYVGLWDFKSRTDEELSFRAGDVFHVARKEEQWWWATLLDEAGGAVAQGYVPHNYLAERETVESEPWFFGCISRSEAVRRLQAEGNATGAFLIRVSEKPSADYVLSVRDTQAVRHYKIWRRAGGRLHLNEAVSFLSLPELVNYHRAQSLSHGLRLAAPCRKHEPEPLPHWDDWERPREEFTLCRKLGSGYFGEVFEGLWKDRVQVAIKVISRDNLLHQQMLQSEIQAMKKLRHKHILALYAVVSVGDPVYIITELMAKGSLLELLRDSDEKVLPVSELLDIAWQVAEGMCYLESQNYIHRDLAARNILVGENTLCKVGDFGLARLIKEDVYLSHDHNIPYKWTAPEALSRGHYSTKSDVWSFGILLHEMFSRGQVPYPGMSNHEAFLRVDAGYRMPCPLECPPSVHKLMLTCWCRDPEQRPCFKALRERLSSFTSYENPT
Sequence of Mitogen-activated protein kinase 11 (Homo sapiens) (Q15759 whole entry): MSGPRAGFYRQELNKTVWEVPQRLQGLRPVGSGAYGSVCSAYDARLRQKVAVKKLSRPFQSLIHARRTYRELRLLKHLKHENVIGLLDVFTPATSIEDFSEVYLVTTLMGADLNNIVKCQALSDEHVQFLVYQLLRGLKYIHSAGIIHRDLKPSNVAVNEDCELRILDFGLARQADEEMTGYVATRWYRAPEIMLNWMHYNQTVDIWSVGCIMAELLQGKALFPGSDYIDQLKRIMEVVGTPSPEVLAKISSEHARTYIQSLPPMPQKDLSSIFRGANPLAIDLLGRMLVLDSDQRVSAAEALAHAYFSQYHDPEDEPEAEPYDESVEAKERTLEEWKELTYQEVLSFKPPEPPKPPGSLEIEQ
Sequence of Serine/threonine-protein kinase Nek6 (Homo sapiens) (Q9HC98 whole entry): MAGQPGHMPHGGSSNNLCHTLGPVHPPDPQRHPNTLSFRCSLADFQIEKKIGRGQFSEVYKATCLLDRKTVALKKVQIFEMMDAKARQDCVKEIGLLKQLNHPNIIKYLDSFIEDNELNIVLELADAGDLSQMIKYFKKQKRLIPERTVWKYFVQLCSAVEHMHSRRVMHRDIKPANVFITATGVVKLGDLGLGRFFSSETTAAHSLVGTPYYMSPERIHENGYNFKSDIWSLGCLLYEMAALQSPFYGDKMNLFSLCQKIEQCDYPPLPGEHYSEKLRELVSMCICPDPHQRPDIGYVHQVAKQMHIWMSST
Sequence of Myosin light chain kinase, smooth muscle (Homo sapiens) (Q15746 whole entry): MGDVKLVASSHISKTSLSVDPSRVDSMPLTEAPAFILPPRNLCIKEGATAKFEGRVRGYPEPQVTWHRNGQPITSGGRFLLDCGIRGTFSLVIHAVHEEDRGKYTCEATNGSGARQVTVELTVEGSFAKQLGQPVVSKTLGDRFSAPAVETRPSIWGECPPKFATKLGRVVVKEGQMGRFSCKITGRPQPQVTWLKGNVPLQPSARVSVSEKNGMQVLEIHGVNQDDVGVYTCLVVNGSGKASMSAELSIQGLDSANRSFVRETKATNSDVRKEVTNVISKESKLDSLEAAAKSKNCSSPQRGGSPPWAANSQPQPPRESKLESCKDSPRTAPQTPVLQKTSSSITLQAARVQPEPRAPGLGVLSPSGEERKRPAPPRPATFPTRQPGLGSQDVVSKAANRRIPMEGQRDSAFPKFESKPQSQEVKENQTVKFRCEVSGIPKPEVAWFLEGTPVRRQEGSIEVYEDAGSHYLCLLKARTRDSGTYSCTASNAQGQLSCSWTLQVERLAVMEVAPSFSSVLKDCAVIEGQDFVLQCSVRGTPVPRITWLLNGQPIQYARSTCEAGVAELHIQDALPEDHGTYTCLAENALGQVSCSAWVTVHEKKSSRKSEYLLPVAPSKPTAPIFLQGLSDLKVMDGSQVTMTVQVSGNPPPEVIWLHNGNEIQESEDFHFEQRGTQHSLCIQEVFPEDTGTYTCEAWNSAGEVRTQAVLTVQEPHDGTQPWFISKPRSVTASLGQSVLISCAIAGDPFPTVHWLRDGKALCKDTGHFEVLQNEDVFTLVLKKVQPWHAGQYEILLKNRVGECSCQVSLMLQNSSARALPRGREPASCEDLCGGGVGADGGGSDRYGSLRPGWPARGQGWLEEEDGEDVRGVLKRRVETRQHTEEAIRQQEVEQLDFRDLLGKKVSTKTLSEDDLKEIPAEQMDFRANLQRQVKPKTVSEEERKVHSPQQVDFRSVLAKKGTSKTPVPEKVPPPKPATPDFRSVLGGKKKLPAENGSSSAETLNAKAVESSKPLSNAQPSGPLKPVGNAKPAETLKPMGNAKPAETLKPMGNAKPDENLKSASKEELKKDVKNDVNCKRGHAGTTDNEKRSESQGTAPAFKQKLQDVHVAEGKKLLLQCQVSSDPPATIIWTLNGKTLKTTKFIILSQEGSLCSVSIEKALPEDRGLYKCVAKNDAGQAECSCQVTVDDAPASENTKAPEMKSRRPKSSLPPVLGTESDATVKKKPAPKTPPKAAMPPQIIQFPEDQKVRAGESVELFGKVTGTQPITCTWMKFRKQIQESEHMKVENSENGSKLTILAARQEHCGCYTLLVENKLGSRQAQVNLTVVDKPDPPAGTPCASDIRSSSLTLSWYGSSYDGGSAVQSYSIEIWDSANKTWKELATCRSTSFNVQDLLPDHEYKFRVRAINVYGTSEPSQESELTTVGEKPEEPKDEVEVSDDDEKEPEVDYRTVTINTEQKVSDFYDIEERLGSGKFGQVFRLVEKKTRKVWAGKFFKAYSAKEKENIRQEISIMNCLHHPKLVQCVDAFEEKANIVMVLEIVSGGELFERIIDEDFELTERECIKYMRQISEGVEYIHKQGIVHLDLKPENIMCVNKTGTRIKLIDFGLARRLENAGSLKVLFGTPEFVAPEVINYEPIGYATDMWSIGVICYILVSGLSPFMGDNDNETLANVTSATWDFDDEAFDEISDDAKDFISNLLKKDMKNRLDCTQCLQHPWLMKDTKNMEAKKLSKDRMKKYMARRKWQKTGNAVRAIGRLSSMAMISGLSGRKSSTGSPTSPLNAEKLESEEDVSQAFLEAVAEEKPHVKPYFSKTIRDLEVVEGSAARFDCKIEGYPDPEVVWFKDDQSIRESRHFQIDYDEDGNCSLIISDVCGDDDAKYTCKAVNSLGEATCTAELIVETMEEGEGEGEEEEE
Sequence of Protein kinase C beta type (Homo sapiens) (P05771 2-671 limits assumed): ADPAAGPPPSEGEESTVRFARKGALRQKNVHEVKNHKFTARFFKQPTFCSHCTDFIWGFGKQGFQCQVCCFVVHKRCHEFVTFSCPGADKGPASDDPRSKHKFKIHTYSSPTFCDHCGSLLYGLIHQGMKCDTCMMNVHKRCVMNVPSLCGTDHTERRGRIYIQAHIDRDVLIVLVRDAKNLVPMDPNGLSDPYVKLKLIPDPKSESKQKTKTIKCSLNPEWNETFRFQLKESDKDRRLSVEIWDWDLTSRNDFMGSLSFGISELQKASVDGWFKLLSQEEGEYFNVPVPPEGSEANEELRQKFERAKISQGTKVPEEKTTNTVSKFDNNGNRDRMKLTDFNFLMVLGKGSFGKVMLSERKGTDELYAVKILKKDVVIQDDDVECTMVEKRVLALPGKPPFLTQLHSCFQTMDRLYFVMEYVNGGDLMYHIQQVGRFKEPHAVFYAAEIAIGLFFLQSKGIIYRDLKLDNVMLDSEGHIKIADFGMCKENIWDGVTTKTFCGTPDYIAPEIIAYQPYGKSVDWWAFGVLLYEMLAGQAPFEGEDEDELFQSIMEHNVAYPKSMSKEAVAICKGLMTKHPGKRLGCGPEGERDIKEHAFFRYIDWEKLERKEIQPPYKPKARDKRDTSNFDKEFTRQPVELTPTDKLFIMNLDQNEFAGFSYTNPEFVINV
Sequence of Casein kinase I isoform delta (Homo sapiens) (P48730 whole entry, looked up, canonical isoform): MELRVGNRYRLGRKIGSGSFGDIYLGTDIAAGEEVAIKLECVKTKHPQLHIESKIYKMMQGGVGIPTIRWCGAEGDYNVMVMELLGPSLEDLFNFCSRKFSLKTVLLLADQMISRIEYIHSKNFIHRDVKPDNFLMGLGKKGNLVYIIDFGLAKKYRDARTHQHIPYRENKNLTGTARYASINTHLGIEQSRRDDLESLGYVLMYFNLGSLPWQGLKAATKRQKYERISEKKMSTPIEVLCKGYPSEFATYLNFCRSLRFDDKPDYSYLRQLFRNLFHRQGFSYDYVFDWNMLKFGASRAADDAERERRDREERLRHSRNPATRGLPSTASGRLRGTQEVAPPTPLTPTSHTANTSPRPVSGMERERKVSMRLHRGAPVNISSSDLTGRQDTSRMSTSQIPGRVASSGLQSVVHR

With `Nc1n[nH]c2nnc(-c3c(-c4ccccc4)nn4ccccc34)cc12`, the inhibition turned out to be 1.66% in [1]; 10% in experiment [2]; 0.17% in experiment [3]; 3.88% in experiment [4]; 1.7% in [5]; 9.19% in [6]. Further, the inhibition in experiment [7] was 4.35%; in experiment [8], 36.8%; in [9], -3.56%; in [10], 1.14%; in [11], 0.34%; in [12] it was -1.72%. Besides, the inhibition in experiment [13] is -1.99%; in experiment [14], 4.45%.

Regarding `Oc1n[nH]c2nnc(-c3c(-c4ccccc4)nn4ccccc34)cc12`, the inhibition in experiment [1] was 1.22%; in experiment [2], 5.77%; in experiment [3], 1.62%; in [4], -3%; in experiment [5], -6.03%; in experiment [6] it was 0.52%. The inhibition in experiment [7] was 3.81%; in experiment [8], 4.93%; in experiment [9] it was 7.43%; in experiment [10], 1.9%; in experiment [11], -2.98%; in experiment [12], -3.4%. The inhibition in experiment [13] is -2.58%; in experiment [14], 3.5%.
